{"source": "patent US7001888B2", "about": "“Compositions and methods for treating cancer” (Threshold Pharmaceuticals, Inc., priority 2002, dated 2006)", "system": "HepG2 cells", "assay": "Uptake of compounds by HepG2 cells", "assay_type": "cell-based, human", "conditions": "for Uptake: 100 μM compound, 1 hour at 37° C., per mg protein, iodo conjugates by ICP-MS iodide content, 14C controls by scintillation counting; for Effect of D-glucose on uptake: D-glucose (10 mM) present; for Effect of L-glucose on uptake: L-glucose (10 mM) present; for Relative uptake among the compounds of the invention tested: comparison of Table 1 values", "method": "This example describes assays conducted to determine to what extent certain iodo-containing conjugates of the invention are taken up or transported into cancer cells. As a positive control, the uptake of ^14C-labeled-2-deoxy-D-glucose, a compound transported into human cells via glucose transporters and phosphorylated by hexokinase, and thus retained in the cell, was measured. As a negative control, the uptake of ^14C-labeled-3-O-methyl-glucose, which is transported into the cell via the glucose transporters but is not phosphorylated and so is not retained, was measured.\nThe control assay was conducted as follows. HepG2 cells were plated at a density of 2×10^5 cells per well into a 24 well plate, and the plates were maintained in 37° C. incubator (5% CO2) for 2 days. Prior to the uptake assay, the HepG2 cells were rinsed twice with pre-warmed (37° C.) phosphate-buffered saline (PBS) containing 1 mM CaCl2, 1 mM MgCl2 and 0.3% BSA. The rinsed HepG2 cells were then incubated with 270 μl of buffer (PBS/Ca/Mg/BSA) in the absence or presence of D-glucose (10 mM), L-glucose (10 mM), cytochalasin B (10 μM) or phloretin (0.3 mM) for 10 min at 37° C. Then, 30 μl of ^14C-2DG (final concentration: 100 μM, 0.1 μCi) were added to each well, and the cells were incubated for 1 hour at 37° C. The plate was placed on ice, and the cells were washed rapidly three times with cold PBS buffer (4° C.) containing 1 mM CaCl2 and MgCl2. The cells were then lysed with 150 μl of 1% Triton X-100, and the lysate was transferred to a scintillation vial. The well was rinsed with 200 μl ddH2O, and the rinsate was transferred to the same vial. Radioactivity was quantified using a scintillation counter. The protein concentration of each sample was determined using a BCA kit (Sigma, St Louis, Mo.). The amount of uptake of ^14C-2DG is reported below in units of nmole/mg protein/60 min.\nTo measure uptake of the iodo-containing compounds of the invention, HepG2 cells were plated at a density of 2×10^5 cells per well into a 24 well plate, and the plates were maintained in 37° C. incubator (5% CO2) for 2 days. Prior to the uptake assay, the HepG2 cells were rinsed twice with pre-warmed (37° C.) phosphate-buffered saline (PBS) containing 1 mM CaCl2, 1 mM MgCl2 and 0.3% BSA. The HepG2 cells were then incubated with 270 μl of buffer (PBS/Ca/Mg/BSA) in the absence or presence of D-glucose (10 mM), L-glucose (10 mM), cytochalasin B (10 μM) or phloretin (0.3 mM) for 10 min at 37° C. Then, 30 μl of each of the conjugates (final concentration: 100 μM) were added to individual test wells, and the plates were incubated for 1 hour at 37° C. The plate was placed on ice, and then, the cells were washed rapidly three times with cold PBS buffer (4° C.) containing 1 mM CaCl2 and MgCl2. The cells were lysed by the sequential addition of 150 μl of 1% Triton X-100 and 100 μl of ddH2O into each well. Lysates from six replicate wells were pooled together for each sample (volume per sample: 1.5 ml). The protein concentration of each sample was determined using a BCA kit (Sigma, St Louis, Mo.). Samples were diluted by addition of 4 ml of ddH2O (final volume per sample: 5.5 ml), and the samples treated with the iodo-containing conjugates were analyzed for iodide content by inductively coupled plasma-mass spectrometry (West Coast Analytical Service, Santa Fe Spring, Calif.). The amount of uptake of iodide-containing glucose conjugate is reported as nmole/mg protein/60 min.", "note": "Several values for one entry are separate records, joined by “and”; a condition that tells them apart may be missing. Equal values may be shown once."}
{"compound": "4-(iodophenyl)thiocarbamoyl glucosamine [TP022]", "values": [{"measurement": "Uptake", "value": "0.90 nmole/mg/60 min and 0.97 nmole/mg/60 min"}]}
{"compound": "4-iodobenzyl glucosamine [TP012]", "values": [{"measurement": "Uptake", "value": "2.8 +/− 0.14 (n = 4) nmole/mg/60 min"}, {"measurement": "Effect of D-glucose on uptake", "value": "not blocked"}, {"measurement": "Effect of L-glucose on uptake", "value": "not blocked"}, {"measurement": "Relative uptake among the compounds of the invention tested", "value": "most taken up by the cells"}]}
{"compound": "4-iodohippuroyl glucosamine [TP011]", "values": [{"measurement": "Uptake", "value": 0.5, "unit": "nmole/mg/60 min"}, {"measurement": "Effect of D-glucose on uptake", "value": "blocked"}, {"measurement": "Effect of L-glucose on uptake", "value": "not L-glucose"}]}
{"compound": "CO[C@@H]([C@H](O)[C@H](O)CO)[C@@H](O)C=O", "note": "[3-O-Methyl Glucose, 3-O-methyl-glucose, reference compound]", "values": [{"measurement": "Uptake", "value": 0.2, "unit": "nmole/mg/60 min"}]}
{"compound": "O=CC[C@@H](O)[C@H](O)[C@H](O)CO", "note": "[Compound 2-DG, 2-deoxy-D-glucose, reference compound]", "values": [{"measurement": "Uptake", "value": "51.8 +/− 4.3 (n = 3) nmole/mg/60 min"}]}
{"compound": "O=C(NCCN[C@H]1C(O)O[C@H](CO)[C@@H](O)[C@@H]1O)c1ccc(I)cc1", "note": "(stereo partly shown) [TP014]", "values": [{"measurement": "Uptake", "value": 1.2, "unit": "nmole/mg/60 min"}]}
{"compound": "O=C(COCCOCCOCCOCCOCc1ccc(I)cc1)NC1C(O)O[C@H](CO)[C@@H](O)[C@@H]1O", "note": "(stereo partly shown) [TP017]", "values": [{"measurement": "Uptake", "value": "0.16 nmole/mg/60 min and 0.18 nmole/mg/60 min"}]}
{"compound": "OC[C@H]1OC(O)[C@H](N(C/C=C\\I)C/C=C\\I)[C@@H](O)[C@@H]1O", "note": "(stereo partly shown) [TP018, bis-Z-3-iodopropen-2-yl glucosamine]", "values": [{"measurement": "Uptake", "value": "2.28 nmole/mg/60 min and 2.31 nmole/mg/60 min"}, {"measurement": "Relative uptake among the compounds of the invention tested", "value": "most taken up by the cells"}]}
{"compound": "OC[C@H]1OC(O)[C@H](N(C/C=C/I)C/C=C/I)[C@@H](O)[C@@H]1O", "note": "(stereo partly shown) [TP019, bis-E-3-iodopropen-2-yl glucosamine]", "values": [{"measurement": "Uptake", "value": "1.39 nmole/mg/60 min and 1.00 nmole/mg/60 min"}]}
{"compound": "O=S(=O)(N[C@H]1C(O)O[C@H](CO)[C@@H](O)[C@@H]1O)c1ccc(I)cc1", "note": "(stereo partly shown) [TP020, Pipsyl glucosamine]", "values": [{"measurement": "Uptake", "value": "0.83 nmole/mg/60 min and 0.81 nmole/mg/60 min"}]}
